# Experimental data: patent publication US20160129070A1, “Glutathione Disulfide Compositions and Related Methods for the Treatment of Cancer” (South Dakota Board of Regents, priority 2014, published 2016)
# System: B16-F10 cells lung metastasis
# Assay: Murine lung metastasis assay, B16-F10 cells injected through a tail vein
# Format: in vivo, mice
# Settings: no pretreatment of cells; 50 mg/kg i.p. daily for 5 days; day 21
# Description: Mice were housed four in a cage and received food and water ad libitum. All mice were used at approximately 7-10 weeks of age and given at least one week break after arrival. All experimental protocols were approved by the Institutional Animal Care and Use Committee. Procedures for murine lung metastasis assays reported previously were followed with minor modification [Bezault, J., Bhimani, R., Wiprovnick, J., and Furmanski, P. (1994) Cancer Res 54, 2310-2312; Kalland, T. (1986) Cancer Res 46, 3018-3022; Schultz, R. M., Silberman, S., Persky, B., Bajkowski, A. S., and Carmichael, D. F. (1988) Cancer Res 48, 5539-5545]. Mice were divided into 7 mice per group for treatment. B16-F10 cells were grown and maintained as monolayers in RPMI 1640 medium supplemented with 10% FBS and 1% penicillin/streptomycin in 5% CO2 at 37° C. The cells were then subjected to FBS starvation in RPMI 1640 medium without FBS for 24 h. Cells were harvested through trypsinization and adjusted to a density of […] with serum free medium. […] The weight of mice was recorded daily. […] Tumor nodules on lung surface were counted under a magnifier.
# FIG. 5 presents the representative photographs of the lungs dissected from mice with different treatments. […] The effect was further confirmed by the metastatic tumors counted under a magnifier (Table 3). […]
compound,measurement,value
CN(C)/N=N/c1[nH]cnc1C(N)=O [Dacarbazine],"Number of metastatic tumors in murine lungs, Average",0.8 ± 2.0
